The record followed here is patent US20200181101A1, “BENZAMIDE INHIBITORS OF BACTERIAL LIPOPROTEIN SIGNAL PEPTIDASE” (The Scripps Research Institute, priority 2017, published 2020).

Where two headings read alike, the source gives them in different places.

This experiment concerns the target T1, Lsp from E. coli (Escherichia coli, UniProt P00804).
T1 construct: The full-length Lsp clone from E. coli (residues 1-164); His6 with enterokinase cleavage site (pET19b) (N); made in house; host or cells: E. coli Lemo21 (DE3), pET19b vector
The experiment can be described thus: Lsp FRET activity assay, IC50 determination. Type of experiment: biochemical. Here is the method:
[…] […] 50 μM Lsp FRET substrate was subsequently added and the rate of substrate hydrolysis was measured by increase in fluorescence (excitation 355 nm, emission 495 nm) in 96-well plates on a PerkinElmer EnVision plate reader or Tecan Safire 2 microplate reader. Michaelis-Menten constants and […] were determined using GraphPad Prism software (GraphPad, Inc.).

[1] abbreviates: Table 5, [Lsp] = 20 nM, read-out: IC50.
[2] abbreviates: Table 2, variation of R3, read-out: IC50.
Where [3] appears, read: Table 5, E = 100 nM, read-out: IC50.
[4] abbreviates: Table 7, linker variation, E = 100 nM, read-out: IC50.
Where [5] appears, read: FRET-based assay, [Lsp] = 400 nM, mean (± SD), read-out: IC50.

T1 sequence (P00804 whole entry, the tested form may be a part): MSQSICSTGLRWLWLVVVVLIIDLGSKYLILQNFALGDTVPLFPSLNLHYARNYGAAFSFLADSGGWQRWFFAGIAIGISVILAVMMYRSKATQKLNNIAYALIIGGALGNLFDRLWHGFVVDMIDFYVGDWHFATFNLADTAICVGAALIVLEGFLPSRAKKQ

For `CCC(CC)c1nnc(NC(=O)c2cc(OC)ccc2[N+](=O)[O-])s1` [Sk052-146-1], under “Table 4, read-out: IC50”, the IC50 (as a rule, the concentration needed to halve the response being measured) turned out to be 3.6 µM.

Consider `CCC(CC)c1nnc(NC(=O)c2cc(Cl)c(SC3CCCC3)cc2[N+](=O)[O-])s1` [Sk056-22-1], for which the IC50 under setting [1] was 0.02 µM.

On to `COc1cc(C(=O)Nc2nnc(C(C)(C)C)s2)c([N+](=O)[O-])cc1OC` [Sk061-69-3], for which the IC50 under setting [2] is 36 µM.

As to `COc1cc(C(=O)Nc2nnc(C(C)C)s2)c([N+](=O)[O-])cc1OC` [Sk061-69-1], the IC50 under setting [2] worked out at 44 µM and the IC50 (Table 3, read-out: IC50) was determined as 44 µM.

As to `CCC(CC)c1nnc(NC(=O)c2cc(Cl)c(OCCCCCCNC(=O)OC(C)(C)C)cc2[N+](=O)[O-])s1` [Sk061-54], the IC50 is, setting by setting: under setting [3], approximately 2.3 µM; under setting [4], 2.3 µM.

On to `CCC(CC)c1nnc(NC(=O)c2ccccc2C(=O)OC)s1` [Sk056-13-2], for which the IC50 (Table 4, read-out: IC50) was found to be 12 µM.

Consider `CCC(CC)c1nnc(NC(=O)c2cc(Cl)c(OC3CCCC3)cc2[N+](=O)[O-])s1` [Sk054-116-2], for which the IC50 came to 0.11 ± 0.012 µM under setting [1] and 0.11 ± 0.012 µM (Table 6, read-out: IC50).

Take `O=C(O)CCSCCCCCc1nnc(NC(=O)c2cc(Cl)c(OC3CCCC3)cc2[N+](=O)[O-])s1` [Sk056-27]: the IC50 (Table 6, read-out: IC50) is 11 µM.

`CCC(CC)c1nnc(NC(=O)c2cc(OC)c(OC3CCCC3)cc2[N+](=O)[O-])s1` [Sk052-145-2]: the half-maximal inhibitory concentration (IC50) under setting [1] was determined as 0.073 µM.

The molecule `CCC(CC)c1nnc(NC(=O)c2ccc(OS(=O)(=O)F)cc2[N+](=O)[O-])s1` [Sk056-45-1] displayed an IC50 of 46 µM.

Regarding `CCC(CC)c1nnc(NC(=O)c2ccc(C(F)(F)F)cc2[N+](=O)[O-])s1` [Z123635394], the IC50 (Table 4, read-out: IC50) is 9.3 µM.

As to `CCC(CC)c1nnc(NC(=O)c2cc(Cl)c(Oc3ccc(NC(=O)OC(C)(C)C)cc3)cc2[N+](=O)[O-])s1` [Sk061-29], the IC50 reads like this: under setting [3], 0.64 µM; under setting [4], 0.64 µM.

Take `COc1cc(C(=O)Nc2nnc(C3CC3)s2)c([N+](=O)[O-])cc1OC` [Sk052-147-1]: the IC50 under setting [2] was determined as 208 µM.

Consider `CCC(CC)c1nnc(NC(=O)c2cc(OC)c(OCc3ccccc3)cc2[N+](=O)[O-])s1` [Sk054-82-3], for which the IC50 under setting [1] came out at 2.9 µM.

For `CCC(CC)c1nnc(NC(=O)c2ccc(OC)c(OC)c2)s1` [1b], the “potency against Lsp, in words (SAR)” value was “ablated the potency”. Moreover, the IC50 under setting [5] amounted to 110 µM.

As to `CCC(CC)c1nnc(NC(=O)c2cc(Cl)c(Oc3ccc(O)cc3)cc2[N+](=O)[O-])s1` [Sk061-30-1], under setting [3], the IC50 is more than 4 µM.

With `COc1cc(C(=O)Nc2ccc(C(C)C)nc2)c([N+](=O)[O-])cc1OC` [Sk056-82-4], the IC50 (Table 3, read-out: IC50) is more than 400 µM.

With `CC(C)(C)NC(=O)[C@@H]1C[C@@H]2CCCC[C@@H]2CN1C[C@@H](O)[C@H](Cc1ccccc1)NC(=O)[C@H](CC(N)=O)NC(=O)c1ccc2ccccc2n1` [saquinavir, reference compound], the “inhibition of E. coli Lsp by known aspartic acid protease inhibitors” value was “no known aspartic acid protease inhibitors”.

Turning to `CCC(CC)c1nnc(NC(=O)c2cc(OC)c(OC)cc2[N+](=O)[O-])s1` [1a, 4,5-dimethoxy-2-nitro-N-(5-(pentan-3-yl)-1,3,4-thiadiazol-2-yl)benzamide], the IC50 came out at 4.2 µM under setting [5] and 4.2 ± 1 µM under setting [2]. Besides, the “manner of Lsp inhibition” value (biochemical analysis) is recorded as “non-competitive”.

Consider “N-(5-buty-1,3,4-oxadiazol-2-yl)-4,5-dimethoxy-2-nitrobenzamide [1e]”, for which the “potency against Lsp, in words (SAR)” value is “inactive”. Also, under setting [5], the IC50 was more than 400 µM.

As for `COc1cc(C(=O)Nc2ccc(C(C)C)cn2)c([N+](=O)[O-])cc1OC` [Sk056-82-3], for the setting “Table 3, read-out: IC50”, the IC50 is more than 400 µM.

For the molecule `CCC(CC)c1nnc(NC(=O)c2cc(Cl)c(OCCCCNC(=O)OC(C)(C)C)cc2[N+](=O)[O-])s1` [Sk061-80-2], the concentration for half-maximal inhibition (IC50) under setting [4] stood at 1.6 µM.

Take `O=S(=O)(N[C@H](CO)C(C(F)(F)F)C(F)(F)F)c1ccc(Cl)s1` [begacestat, reference compound]: the “inhibition of E. coli Lsp by known aspartic acid protease inhibitors” value is “no known aspartic acid protease inhibitors”.

As to `CCC(CC)c1nnc(NC(=O)c2ccc(OC)cc2[N+](=O)[O-])s1` [Sk052-146-2], the IC50 (Table 4, read-out: IC50) was 2.2 µM.
